Here are results for 2 compounds from patent US20210115087A1, “CYCLIC PEPTIDE INHIBITORS OF HEDGEHOG PROTEINS” (University of Rochester, priority 2016, published 2021).

Data set [1] concerns the target T1, GST-Dhh (Homo sapiens, UniProt O43323).
T1 construct: poly-histidine (N); made in house; host or cells: E. coli BL21(DE3), vector pET42b
Briefly: Competition assay: inhibition of FLAG-HL2-m5 binding to GST-Dhh. The settings on record: 10 μM robotnikinin and 400 nM FLAG-HL2-m5. How it is done: (§1) The immunoassay described above can be adapted to serve as a competition assay. In this case, a fixed amount of the labeled peptide is incubated with the immobilized Hedgehog protein in the presence of a test compound (e.g., another cyclic peptide or a small-molecule compound). The test molecule competes with the cyclic peptide for binding to the immobilized Hedgehog protein. The amount of bound peptide is quantified using the colorimetric assay described above and the extent of inhibition in the presence of the test compound is compared to that in the absence of it. From the resulting dose-response curves, a IC50 value for the test compound can be obtained. Using this assay and the cyclic compounds provided herein, the Hedgehog inhibitory activity of a test molecule can be evaluated. […]
(§2) While Shh is the most abundant isoform among Hedgehog proteins, paracrine/autocrine Hedgehog signaling in normal and cancer cells is also mediated by the Indian (Ihh) and Desert (Dhh) isoforms. […] Since the Hh isoform selectivity of robotnikinin had not previously investigated, this property was examined by means of a competition assay, whereby inhibition of FLAG-HL2-m5 binding to plate-immobilized GST-Shh, GST-Ihh, or GST-Dhh is measured via the HRP-conjugated anti-FLAG antibody.
(§3) Competition assay. […] Mean values and standard deviations were calculated from experiments performed in triplicate.

In data set [2] the target is T2, GST-Ihh (Homo sapiens, UniProt Q14623).
T2 construct: poly-histidine (N); made in house; host or cells: E. coli BL21(DE3), vector pET42b
In words: Competition assay: inhibition of FLAG-HL2-m5 binding to GST-Ihh. The conditions noted are these: 10 μM robotnikinin and 400 nM FLAG-HL2-m5. How it is done: as §1, §2, §3

The subject of data set [3] is Hedgehog pathway activation in cells. The settings on record: similar cell-based assay; read-out: IC50, blocking Hedgehog pathway activation in cells; cited from earlier work.
Data set [4] has as its target T3, GST-Shh (Homo sapiens, UniProt Q15465).
T3 construct: poly-histidine (N); made in house; host or cells: E. coli BL21(DE3), vector pET42b
In words: Competition assay: inhibition of FLAG-HL2-m5 binding to GST-Shh. The conditions noted are these: 10 μM robotnikinin and 400 nM FLAG-HL2-m5; read-out: % inhibition of FLAG-HL2-m5 binding in the presence of GST-Shh. As for the experimental part:
as §1, §2, §3

The subject of data set [5] is GST-Shh, GST-Ihh, and GST-Dhh. In words: Hedgehog analog selectivity: relative binding at fixed peptide concentration. Also on record: species or system human. The settings on record: peptide at fixed concentration of 0.5-1 μM, normalized to highest response. As for the experimental part: FIG. 14. Hh analog selectivity for linear HHIP L2-derived peptide (HL2-pep) and representative cyclic peptide inhibitors. The data relative to the peptides were derived from direct binding experiments with immobilized Hedgehog proteins (i.e., GST-Shh, GST-Ihh, and GST-Dhh), biotinylated peptides (i.e., Biot-HL2-pep, Biot-HL2-m1, Biot-HL2-m2, Biot-HL2-m3, Biot-HL2-m4, Biot-HL2-m4), and HRP-conjugated streptavidin. The data relative to robotnikinin were derived from competition experiments ([…]+400 nM HL2-m5). For each compound, the response values were normalized to the highest binding response measured across the three Hedgehog analogs.
Hedgehog analog selectivity. KD values for FLAG-HL2-m5 binding to Ihh and Dhh were determined using the colorimetric immunoassay described earlier but using GST-Ihh and GST-Dhh-coated plates, respectively. The peptide relative binding affinity for the three isoforms of Hedgehog was determined using the same assay and peptide solutions at a fixed concentration of 0.5-1 μM. In this case, binding responses were subtracted against the blank (no peptide sample) and normalized to the highest value measured across the three Hh isoforms. Mean values and standard deviations were calculated from experiments performed at least in triplicate.

Data set [6] deals with Shh-mediated Hedgehog pathway signaling in NIH3T3 cells. Briefly: Gli-reporter dual luciferase assay in Shh-N-stimulated NIH-3T3 cells. The data set is classed as cell-based, mouse. The settings on record: 4 nM Shh-N, 24 hours; read-out: half-maximal inhibitory concentration (IC50), suppression of luminescence signal. From the text: The ability of the compounds provided herein to inhibit ligand-induced activation of the Hedgehog pathway in a cell can be assessed by means of a cell based assay. In an exemplary procedure, a suitable reporter plasmid is introduced in a Hedgehog responsive mammalian cell. Typically, the reporter plasmid contains a reporter gene encoding (e.g., a gene encoding for firefly luciferase) under a Gli-controlled promoter, thereby providing a reporter gene that is responsive to the activity of the Gli transcription factors. […] The reporter cells are incubated with the Hedgehog protein in the presence and in the absence of the cyclic peptide. The extent of Hedgehog pathway suppression can be determined based on relative activity of the luciferase reporter enzyme, which in turn can be determined by measuring the luminescence signal after addition of a luminogenic substrate of the luciferase enzyme.
To this end, we utilized a cell-based luciferase reporter assay, (Chen, Taipale et al. 2002) in which mouse embryo fibroblasts (NIH3T3) are transfected with vectors encoding for a Firefly luciferase (FF) gene under a Gli-controlled promoter and a Renilla luciferase (Ren) gene under a constitutive promoter. Hedgehog pathway suppression is measured based on the decrease in Firefly/Renilla luminescence ratio in the presence of the inhibitor. […] (Chen, Taipale et al. 2002)
Gli-reporter Assay. NIH-3T3 cells were passaged twice and then plated in 24-well culture dishes at 5×10^5 cells/well in DMEM containing 10% FBS and 1% penicillin/streptomycin. After 24 hours, the cells were transfected (TransIT-2020) with a mixture of a firefly luciferase reporter construct under the control of a Gli1 inducible promoter and a Renilla luciferase reporter construct under a constitutive promoter (40:1) (Cignal GLI Reporter Luciferase Kit, Qiagen). Cells were allowed to reach confluency, at which point the media was changed to Opti-MEM containing 1% FBS and added with 4 nM Shh-N(R&D Systems, Minneapolis, Minn.) in sterile PBS buffer. Synthetic HL2-lin and HL2-m5 were added at the same time at varying concentration (0.01-30 uM), and control cells were prepared by adding vehicle only (1% DMSO). Purmorphamine-treated cells were prepared by adding 5 μM purmorphamine to wells containing 10 μM HL2-m5. After growth for 24 hours at 37° C. in a humidified chamber, the cells were harvested and analyzed for Firefly and Renilla luciferase activity using a Tecan Spark-20 plate reader and a DLR kit (Promega) according to the manufacturer's instructions. Luminescence values were normalized to those of the Shh pathway activated control cells. Mean values and standard deviations were calculated from experiments performed at least in duplicate.

Data set [7] relates to NIH-3T3 cells. Briefly: Cell morphology, growth behavior and titer in the presence of the peptide. The class given is cell-based, mouse. The conditions noted are these: highest concentration range applied.
The subject of data set [8] is Hedgehog pathway target genes Gli, Gi2 and Ptch1. Briefly: Gene transcription analyses by real-time PCR in Shh-N-stimulated NIH-3T3 cells. The data set is classed as cell-based, mouse. The conditions noted are these: HL2-m5 at 10 μM. As for the experimental part: The ability of the compounds to suppress a transcriptional response associated with activation of the Hedgehog pathway can be assessed by incubating a Hedgehog responsive mammalian cell with the Hedgehog ligand in the presence and in the absence of the cyclic peptide inhibitor. The messenger RNA (mRNA) is extracted and a DNA the mRNA (cDNA) is produced via reverse transcription. The transcriptional level of canonical Hedgehog target genes such as Gli1 and Ptch1 is then determined via real-time PCR and/or via PCR followed by DNA gel electrophoresis. From the resulting dose-response curves, the activity of the cyclic peptide toward suppressing Hedgehog induced transcriptional activity can be established and quantitatively measured by means of IC50 values.
To further validate HL2-m5 as a Hedgehog pathway antagonist, the effect of this compound on the transcriptional activity of two canonical target genes of the pathway, Gi and Ptch1 (FIG. 1) was examined via real-time PCR. […]
Gene transcription analyses. […] The relative amounts of Gi, Gi2, and Ptch1 mRNA transcripts were determined by real-time PCR (Bio-Rad CFX thermocycler) using the primers listed in Table S1 and SYBR green TAQ reagent (Bio-Rad) according to the manufacture's protocol. […] Mean values and standard deviations were calculated from measurements performed in quadruplicate.
(Real-time PCR tracks product formation cycle by cycle.)

Molecules are shown by their SMILES. *1 amine or outer side, *2 acyl side, *3 side chain or, on linkers, in order; H or OH if unused. Where a SMILES comes first, the peptide text is derived from it. Bridges are numbered along the chain shown (N, C = ends). CH2CH2 = C(C[*:2])[*:1]

T3 sequence (Q15465 24-462): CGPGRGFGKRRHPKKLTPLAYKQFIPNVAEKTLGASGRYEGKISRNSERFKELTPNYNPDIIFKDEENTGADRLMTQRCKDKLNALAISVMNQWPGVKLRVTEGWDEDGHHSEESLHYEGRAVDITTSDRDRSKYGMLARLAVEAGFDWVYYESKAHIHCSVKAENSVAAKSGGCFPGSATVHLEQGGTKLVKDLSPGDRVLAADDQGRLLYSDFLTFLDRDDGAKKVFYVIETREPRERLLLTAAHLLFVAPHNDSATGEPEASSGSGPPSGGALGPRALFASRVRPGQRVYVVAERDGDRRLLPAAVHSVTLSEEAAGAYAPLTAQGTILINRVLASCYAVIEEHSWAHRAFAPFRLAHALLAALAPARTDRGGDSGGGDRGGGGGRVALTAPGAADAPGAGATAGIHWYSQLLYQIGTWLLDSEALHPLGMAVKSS
T2 sequence (Q14623 28-411): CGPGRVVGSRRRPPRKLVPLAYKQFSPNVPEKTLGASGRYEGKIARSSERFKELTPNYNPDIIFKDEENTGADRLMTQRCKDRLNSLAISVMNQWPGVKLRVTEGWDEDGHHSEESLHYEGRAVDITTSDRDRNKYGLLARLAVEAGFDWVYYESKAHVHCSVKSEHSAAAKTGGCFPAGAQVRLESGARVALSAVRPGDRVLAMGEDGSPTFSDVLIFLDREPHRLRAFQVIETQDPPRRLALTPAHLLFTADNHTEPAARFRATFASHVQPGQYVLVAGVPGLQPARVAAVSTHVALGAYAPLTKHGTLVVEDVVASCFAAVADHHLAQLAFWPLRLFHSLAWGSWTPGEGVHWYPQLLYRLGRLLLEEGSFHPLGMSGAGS

What is called inhibition is how much of the control response was suppressed. In the case of `O=C(C[C@@H]1C/C=C/CCC(=O)O[C@H](c2ccccc2)CNC1=O)NCc1ccc(Cl)cc1` [robotnikinin], the “affinity toward Dhh relative to Shh” value in data set [1] is listed as “significantly lower affinity”. Further, in data set [2], the “affinity toward Ihh relative to Shh” value is “significantly lower affinity”. Further, in data set [3], the IC50 is around 15 µM. The inhibition at 10 µM in data set [4] came to 34%.

On to `CSCC[C@@H]1NC(=O)[C@H](C)NC(=O)[C@H](CCC(=O)O)NC(=O)[C@@H](NC(=O)[C@H](Cc2c[nH]c3ccccc23)NC(=O)[C@H](CO)NC(=O)[C@H](CC(C)C)NC(=O)[C@@H](NC(C)=O)[C@@H](C)O)Cc2ccc(cc2)OCCSC[C@@H](C(=O)N[C@H](C(=O)N[C@@H](CC(=O)O)C(N)=O)[C@@H](C)O)NC(=O)[C@H](CCSC)NC(=O)[C@H](CC(=O)O)NC1=O` [HL2-m5] (Ac-TLSWYEAMDMCTD-NH2; linker 5-11 via CH2CH2), for which, in data set [5], the “Hedgehog analog selectivity profile” value was “nearly identical activity toward Shh and Ihh”. In addition, the IC50 in data set [6] is 0.25 µM. For the same compound, the “cytotoxicity (cell morphology, growth behavior and titer)” value in data set [7] was “lack of cytotoxicity”. Besides, the “mRNA level for the transcription factor Gli2” value in data set [8] (ShhN-stimulated cells) is given as “suppresses”. Also, the “reduction of the mRNA levels of Gi and Ptch1” value in data set [8] (relative to compound-untreated ShhN-stimulated cells) is given as 75-85%.
